The values below come from PMC9193972, “Candidate Chemosensory Genes Identified in the Adult Antennae of Sympiezomias velatus and Binding Property of Odorant-Binding Protein 15” (Frontiers in Physiology, 2022).

The target in assay [1] is recombinant SvelOBP15. As to the kind of experiment: Fluorescence competitive binding assay with 1-NPN as fluorescent reporter. Further details: species or system Sympiezomias velatus. The note with it: for Ki: calculated from IC50, mean ± SE, read-out: Ki (dissociation constant); for Ki / IC50: 1-NPN 2 μmol/L; for IC50: competitor 2 to 20 μmol/L, concentration halving the fluorescence of 1-NPN; for binding to SvelOBP15 (in words): competitive binding, competitor up to 20 μmol/L. How it is done: The whole ORF of SvelOBP15 was successfully validated by RT-PCR and Sanger sequencing and then synthesized (without the signal peptide-encoding region) by Sangon Biotech (Shanghai, China). It was first cloned into the pGEM-T cloning vector (Promega, Madison, United States) and then subcloned into the expression vector pET-30a(+) (Novagen, Darmstadt, Germany). Recombinant SvelOBP15 was expressed in Escherichia coli Transetta (DE3) following induction with 0.5 mM isopropyl-b-D-thiogalactopyranoside (IPTG) after the culture reached an OD600 of 0.4–0.6. Incubation was continued at 37°C with shaking at 220 rpm for an additional 6 h. […] Denaturation and renaturation were performed following previously reported methods ([Liu et al., 2012]). The protein was purified using a HisTrap HP prepacked column (GE Healthcare, Pittsburgh, United States) according to the manufacturer’s instructions, and recombinant enterokinase (rEK) (GenScript Biology Company, Nanjing, China) was used to remove the His-tag. After running the digested protein back through the HisTrap HP prepacked column, the tag-free protein was obtained in the flow-through fraction. Proteins were visualized at all stages of purification by SDS-PAGE.
(§1) Fluorescence competitive binding assays were performed as reported previously ([Liu et al., 2015]). This assay was conducted on a Hitachi F-7000 fluorescence spectrophotometer with a 1-cm light path quartz cuvette and 10-nm slits for both excitation and emission. The excitation wavelength was 337 nm, and the emission spectrum was recorded between 390 and 460 nm. First, to determine the binding affinities of N-phenyl-1-naphthylamine (1-NPN) to OBP15, the fluorescence intensity values at maximum fluorescence emissions were plotted against the free ligand concentration by titrating increasing concentrations of 1-NPN. The binding curves were linearized using Scatchard plots. Next, competitive binding assays of OBP15 to 33 chemicals (Supplementary Table S2) of different structural characteristics were carried out using 1-NPN as the fluorescent reporter at a concentration of 2 μmol/L, whereas the concentration of each competitor varied from 2 to 20 μmol/L. These chemicals included the volatile components of host plants such as peanut, elm, maize, cotton, etc. ([Hammack, 2001]; [Cardoza et al., 2002]; [Ngumbi et al., 2009]; [Cheng et al., 2010]) and aggregation pheromone components of curculionids ([Gries et al., 1993]; [Hallett et al., 1993]; [Eller et al., 1994]; [Szendrei et al., 2011]). Chemicals were purchased from Sigma-Aldrich (St. Louis, United States) (purity >95% or 90%). Based on the assumption that the activity of proteins was 100% with a saturation stoichiometry of 1:1 (protein: ligand), the dissociation constants (Ki) of the competitors were calculated from the IC50 values (the concentrations of the ligands halving the fluorescence of 1-NPN) using the following equation:
Ki = [IC50]/(1 + [1-NPN]/K1-NPN) ([Ban et al., 2003]).Where [1-NPN] is the free concentration of 1-NPN and K1-NPN is the dissociation constant of the complex protein/1-NPN.
Ki values of various compounds (mean ± SE) were subjected to one-way ANOVA followed by Tukey post hoc test for mean comparison using SPSS Statistics 20.0 (SPSS Inc., Chicago, United States).

The target in assay [2] is recombinant SvelOBP15. As to the kind of experiment: 1-NPN titration (binding curve, Scatchard plot). Further details: species or system Sympiezomias velatus. As to conditions: titration with increasing 1-NPN, read-out: dissociation constant of 1-NPN. How it is done: as §1, with “Based on the assumption that the activity of proteins was 100% with a saturation stoichiometry of 1:1 (protein: ligand), the dissociation constants (Ki) of the competitors were calculated from the IC50 values (the concentrations of the ligands halving the fluorescence of 1-NPN) using the following equation:” left out

Assay [3] has as its system AquaOBP4. Further details: method as in Wang et al., 2017. As to conditions: ref Wang et al., 2017; cited from earlier work.
Assay [4] relates to SzeaOBP28. Set-up: method as in Zhang Y. et al., 2019. The note with it: ref Zhang Y. et al., 2019; cited from earlier work.

Consider `C=CC(C)(O)CCC=C(C)CCC=C(C)C` (mixture of isomers) [Nerolidol], for which the Ki in assay [1] was 12.9 ± 0.43 µM.
With `Cc1cccc2ccccc12` [1-Methylnaphthalene], the half-maximal inhibitory concentration (IC50) in assay [1] is greater than 20 µM.
On to `c1ccc(Nc2cccc3ccccc23)cc1` [1-NPN, N-phenyl-1-naphthylamine], for which the Kd in assay [2] is 4.68 ± 0.16 µM.
With `C=CC(O)CCCCC` (stereo not shown) [1-Octen-3-ol], the IC50 in assay [1] is greater than 20 µM.
The same measure, in the same setting: for `CC(=O)c1ccc(C)c(C)c1` [3',4'-Dimethylacetophenone] the value was greater than 20 µM; for `CCCCC(O)C(C)CC` (stereo not shown) [3-Methyl-4-octanol], greater than 20 µM; for `CCc1ccc(C(C)=O)cc1` [4-Ethylacetophenone], greater than 20 µM.
Still for that read-out and setting: as for `CCCCC(O)C(C)CCC` (stereo not shown) [4-Methyl-5-nonanol], the figure is greater than 20 µM.
On the same count and under the same terms, as for `CCCCC(=O)C(C)CCC` (stereo not shown) [4-Methyl-5-nonanone], the figure is greater than 20 µM.
Consider `O=C1CCCC1C1CCCC1` (stereo not shown) [(1,1`-Bicyclopentyl)-2-one], for which the IC50 in assay [1] is greater than 20 µM.
On the same count and under the same terms, for `C=C1CC/C=C(\C)CC[C@@H]2[C@@H]1CC2(C)C` [(-)-trans-Caryophyllene] the value was greater than 20 µM; for `CC(C)=CCC/C(C)=C/CO` [(E)-3,7-Dimethyl-2,6-octadien-1-ol], greater than 20 µM.
Regarding `CC(C)=CCC/C(C)=C/CC/C(C)=C/CO` [(E,E)-Farnesol], in assay [1], the IC50 worked out at 9.26 ± 0.43 µM and the Ki was 7.36 ± 0.36 µM.
Turning to `O=Cc1ccccc1` [Benzalehyde], the IC50 in assay [1] was greater than 20 µM.
As for `CC(C)COC(=O)CCCCC(=O)OCC(C)C` [Diisobutyl adipate], the IC50 in assay [1] was greater than 20 µM.
With `CC(C)COC(=O)c1ccccc1C(=O)OCC(C)C` [Diisobutyl phthalate], in assay [1], the IC50 came out at 15.8 ± 0.42 µM and the Ki is 12.6 ± 0.34 µM. Besides, in assay [3], the “binding to AquaOBP4 (in words)” value is “weakly bound”.
Turning to `CCCCCCCCCCCC` [Dodecane], in assay [1], the IC50 was greater than 20 µM and the “binding to SvelOBP15 (in words)” value is “cannot be bound”.
As to `CC(C)=CCC/C(C)=C/C(=O)O` [Geranic acid], the IC50 in assay [1] was greater than 20 µM.
For `C=C(C)[C@H]1CC=C(C)CC1` [Limonene], in assay [1], the IC50 came out at 14.7 ± 0.53 µM and the Ki was 11.7 ± 0.47 µM.
In the case of `C=CC(C)(O)CCC=C(C)C` (stereo not shown) [Linalool], in assay [1], the IC50 is greater than 20 µM.
On the same count and under the same terms, as for `COC(=O)c1ccccc1O` [Methyl salicylate], the figure is greater than 20 µM; as for `CCCCCCCCC=O` [Nonanal], greater than 20 µM.
As to `CCCCCCCCCCCCCCCC(=O)O` [Palmitic acid], the IC50 in assay [1] was greater than 20 µM.
For the compound `CCCCCCCCCCCCCCC` [Pentadecane], in assay [1], the IC50 was greater than 20 µM and the “binding to SvelOBP15 (in words)” value is given as “cannot be bound”.
For `CCCCCCCCCCCCCC` [Tetradecane], in assay [1], the IC50 was greater than 20 µM and the “binding to SvelOBP15 (in words)” value is on record as “cannot be bound”.
In the case of `CC/C=C\CCO` [Z-3-hexen-1-ol], the IC50 in assay [1] was greater than 20 µM.
As to `COCCOC(=O)c1ccccc1C(=O)OCCOC` [bis (2-methoxyethyl) phthalate], the “binding to SzeaOBP28 (in words)” value in assay [4] is “exhibited a binding affinity”.
Take `CC/C=C\CCOC(C)=O` [cis-3-Hexenyl acetate]: the concentration for half-maximal inhibition (IC50) in assay [1] was greater than 20 µM.
Turning to `CCCCCCCCCCCCCCCC` [n-Hexadecane], in assay [1], the IC50 is greater than 20 µM and the “binding to SvelOBP15 (in words)” value is given as “cannot be bound”.
For the compound `CCC/C=C/COC(C)=O` [trans-2-Hexenyl acetate], the 50% inhibitory concentration (IC50) in assay [1] is greater than 20 µM.
On to `CCC/C=C/C=O` [trans-2-Hexenyl aldehyde], for which, in assay [1], the IC50 was greater than 20 µM.
Consider `C=C/C(C)=C/C/C=C(\C)CCC=C(C)C` [α-Farnesene], for which the half-maximal inhibitory concentration (IC50) in assay [1] was greater than 20 µM.
On the same count and under the same terms, as for `C=C/C(C)=C/CC=C(C)C` [β-Ocimene], the figure is greater than 20 µM.
Turning to (+)-α-Pinene, the concentration for half-maximal inhibition (IC50) in assay [1] is greater than 20 µM.
Take (+)-β-Pinene: the IC50 in assay [1] is greater than 20 µM.

What is called Ki is the dissociation constant of the complex between target and ligand, obtained from inhibition or displacement. A word on the IC50: it is the concentration that inhibits the measured activity by half.
